US12648928B2, “Intervention strategy for prevention or treatment of diabetes mellitus, autoimmune disease, inflammatory disease or cardiovascular disease” (ACADEMISCH MEDISCH CENTRUM, priority 2020, dated 2026)

What was measured:
[1] = system: murine bone marrow-isolated monocytes or bone marrow-derived macrophages; assay: In vitro stimulation of murine monocytes / bone marrow-derived macrophages, cytokine ELISA; format: cell-based; conditions: for cytokine secretion by monocytes: murine monocytes CD11b+ activated with LPS (10 μg/ml) for 24 hours, TLR4 stimulation (FIG. 8)
Description: Naïve bone marrow monocytes were isolated from BM cells. Briefly, hind legs were removed from 3 mice, cleaned from surrounding muscles. The femur and tibia bones were trimmed at their extremities, the BM content was flushed out with cold PBS using a 10 ml syringe and a 25G needle and filtered through a 40 μm strainer. Red blood cells (RBC) were lysed with 1× RBC lysis buffer (Biolegend) for 5 min. on ice. CD11b+ monocytes were further purified by positive selection using a cocktail of CD11 b magnetic beads (Miltenyi Biotec, #130-049-601) and magnetizing MS columns (Miltenyi Biote) according to the manufacturer's instructions. Subsequently, monocytes were seeded in F-bottom 96-well plates at 1×10^5 cells per well in RPMI1640 supplemented with 10% heat-inactivated fetal bovine serum, penicillin (100 U/ml), streptomycin (100 μg/ml), L-glutamine (2 mM) […]. Monocytes were activated with 10 μg/ml LPS (Sigma-Aldrich) and subjected to treatment with 6-BT (10/100 μM), LysoPC(20:0) (10/50 μM), MA-GPC (10/50/100 μM), or appropriate vehicle. Cells were kept in a final volume of 200 μl/well for 24 hours, after which supernatant was harvested and stored at −80° C.
Bone marrow-derived macrophages (BMDM) and DC (BMDC) were obtained by differentiating freshly isolated BM cells from femur and tibia bones (as above described) of C57/B16 mice (N=3 per experiment). For BMDM, BM cells were seeded at 3×10^6 cells per 10 cm dish and cultured for 7 days in 12 ml RPMI1640 medium with 20% fetal bovine serum, 30% L-929 cell conditioned media, as source of murine macrophage colony-stimulating factor (M-CSF). For BMDC, BM cells were seeded at 0.5×10^6/ml cells in 25 ml in 10 cm dishes and cultured for 7 days in presence of GM-CSF in 5% FBS-RPMI1640 medium. After differentiation, BMDM/DCs were harvested, counted and seeded at a density of 1×10^5 cells per well in a F-bottom 96-well plate and left to adhere for 20 hours before experiments were performed. Macrophages were activated with 10 μg/ml polyinosinic-polycytidylic acid poly(I.C) (InvivoGen) for 24 hours in presence or not of 6-BT (10/100 μM), LysoPC(20:0) (10/50 μM), or MA-GPC (10/50/100 μM) in a final volume of 200 μl/well. At the end of the assay, supernatant was harvested and stored at −80° C.
(§1) Specific ELISAs (R&D Systems) were utilized to measure the concentration of TNFα, IFNβ, and IFNγ in cell supernatant of murine monocytes, macrophages ad T cells, respectively, according to the manufacturer's instructions. The concentration of insulin after 24-hour treatment with metabolites or after GSIS were determined using Rat insulin ELISA (Mercodia) according to the manufacturer's instructions. GSIS was calculated by subtracting the concentration of insulin at 1 mM glucose to the insulin rate at 22 mM glucose.
Here, murine bone marrow-isolated monocytes (Christ A., Western Diet Triggers NLRP3-Dependent Innate Immune Reprogramming. Cell 2018) or bone marrow-derived macrophages (Swanson K V, A noncanonical function of cGAMP in inflammasome priming and activation. JEM 2017) were exposed for 24 hours to the indicated concentrations of 6-BT (10-100 μM) in presence or not of 10 μg/ml LPS, 10 μg/ml P3C or 10 μg/ml poly(I.C).

murine CD4+ T cells = assay: In vitro CD4+ T cell activation assay (anti-CD3/anti-CD28); format: cell-based; conditions: for Th1 responses in CD4 T cells: anti-CD3 & anti-CD28 mAbs, 24 hours (FIG. 11)
Description: Primary CD4+ T cells were freshly isolated by negative selection from spleens of C57/B16 mice (N=3 per experiment). Briefly, spleens were smashed in a culture dish and passed twice through a strainer (70 μm and 40 μm, respectively) to obtain a single-cell suspension.
Using the negative selection (CD4+ T Cell Isolation kit, Miltenyi Biotec, #130-10-454). Non-CD4 T cells were depleted by retaining them in LS magnetizing column (Miltenyi Biotec).
Isolated CD4 T cells were cultured in 96-well plates (1×10^5 per well) in RPMI1640 medium supplemented with 10% fetal bovine serum, 100 U/ml penicillin, 100 μg/ml streptomycin, 2 mM L-glutamine. Treatment with the metabolites 6-BT (1/10 μM), LysoPC(20:0) (10/50 μM) or MA-GPC (10/50/100 μM) and activation with 2.5 μg/ml soluble anti-CD3 (145-2C11, eBioscience) and 1 μg/ml soluble anti-CD28 (37.51, eBioscience) antibodies started immediately after seeding in 200 i/well complete RPMI1640 media for a 24-hour period, at the end of which supernatant was harvested and stored at −80° C.
as §1
Particularly in the context of autoimmune diabetes, the activity of T cells is driving disease onset and progression. […] To mimic antigen presentation, murine CD4 T cells (isolated from spleens; Uchimura T., The Innate Immune Sensor NLRC3 Acts as a Rheostat that Fine-Tunes T Cell Responses in Infection and Autoimmunity. Immunity 2019) were activated by monoclonal antibodies against CD3 and CD28 (2.5 and 1 μg/ml, respectively).

NF-κB = NF-κB reporter macrophage luciferase assay (RAW264.7); format: cell-based, murine; conditions: RAW264.7 3x-κB-luc; LPS 10/100 ng/ml 2 hours; different doses (FIG. 7)
Description: NF-κB signaling activation was assessed by luciferase activity assay. RAW264.7 cells stably transfected with the 3×-κB-luc plasmid (DNA construct containing three NF-κB sites from the Ig κ light chain promoter coupled to the gene encoding firefly luciferase) were grown in DMEM medium supplemented with 10% heat-inactivated fetal bovine serum, penicillin (100 U/ml), streptomycin (100 μg/ml), L-glutamine (2 mM). Cells were seeded in F-bottom 96-well […] metabolites at different concentrations (6-BT 0,1-100 μM, LysoPC(20:0) 1-10 μM, 16:0-18:2 PE 1-50 μM, MA-GPC 1-100 μM). Afterwards, cells were lysed with 25 μl/well 1×passive lysis buffer and firefly luciferase activity was measured by LUCIFERASE® Assay System (Promega, E1500) on a GLOMAX @-Multi Detection System (Promega).

INS1E beta cells = assay: Seahorse XF intracellular metabolism, INS1E beta cells; format: cell-based, rat; conditions: INS1E beta cells; compared with 6-BT
Excerpt: Lastly, it was investigated whether 6-BT may influence the mitochondrial metabolism of beta cells, which rely on ATP and mitochondrial metabolite production for insulin exocytosis. […] Intracellular metabolism measured using a Seahorse XF Analyzer Uchimura T., The Innate Immune Sensor NLRC3 Acts as a Rheostat that Fine-Tunes T Cell Responses in Infection and Autoimmunity.

Row | SMILES | cytokine secretion by monocytes [1] | Th1 responses in CD4 T cells (murine CD4+ T cells) | NFκB pathway activation in macrophages (NF-κB) | production of the Th1 cytokine IFNgamma (murine CD4+ T cells; CD4 T cells from spleens, anti-CD3 2.5 μg/ml and anti-CD28 1 μg/ml (FIGS. 16, 20)) | effect on intracellular metabolism (INS1E beta cells) | type 1 IFN secretion ([1]; PolyI:C for 24 hours, TLR3 stimulation (FIG. 9))
1 | CCCCC/C=C\C/C=C\C/C=C\C/C=C\CCCC(=O)OC[C@@H](O)COP(=O)([O-])OCC[N+](C)(C)C [A-GPC, 1-arachidonoyl-glycero-phosphocholine] | halt cytokine secretion | dampen Th1 responses | can inhibit NFκB pathway activation |  |  | 
2 | N[C@@H](Cc1c[nH]c2ccccc12)C(=O)O [tryptophan, reference compound] |  |  |  | but not tryptophan, exerted inhibitory effect | exerted a different effect than 6-BT | 
3 | CCCCC/C=C\C/C=C\C/C=C\C/C=C\CCCC(=O)O[C@H](COC(=O)CCCCCCCCCCCCC)COP(=O)([O-])OCC[N+](C)(C)C [MA-GPC, 1-myristoyl-2-arachidonoyl-glycero-phosphocholine] | halt cytokine secretion | hampers immune responses | can inhibit NFκB pathway activation |  |  | impair type 1 IFN secretion
